Test results taken from patent publication US20230092679A1, “MCL-1 INHIBITOR ANTIBODY-DRUG CONJUGATES AND METHODS OF USE” (NOVARTIS AG, priority 2019, published 2023).
Where two headings read alike, the source gives them in different places.

Key:
[1] = test system: mv411; test: In vitro ADC activity, AML cell lines, CellTiter-Glo (Example 20); assay type: cell-based; details: mv411, 5 days
[2] = test system: m07e; test: as above; assay type: cell-based; details: 5 days
[3] = test system: kg1; test: as above; assay type: cell-based; details: kg1, 5 days
[4] = test system: hel9217; test: as above; assay type: cell-based; details: hel9217, 5 days
[5] = test system: 5340hx; test: as above; assay type: cell-based; details: 5 days
[6] = test system: MOLM-13; test: CellTiter-Glo proliferation assay (Example 6); assay type: cell-based; details: CD33 Mcl-1 ADCs and payload P1, 5 days
Description: (§1) Mcl-1 ADCs were tested on nine endogenous cancer cell lines and one isogenic cell line engineered to overexpress a target of interest. Six targets were assessed: HER2, BCMA, CD38, CD48, CD79b, and CD33.
(§2) Cell lines • HER2: HCC1954 (ATCC No. CRL-2338 cultured in RPMI-1640+10% FBS) and HCC2218 (ATCC No. CRL-2343 cultured in RPMI-1640+10% FBS). • BCMA: NCI-H929 (ATCC No. CRL-9068 cultured in RPMI-1640+10% FBS+0.05 mM 2-mercaptoethanol). • CD38: A4-Fuk (JCRB No. JCRB0097 cultured in RPMI-1640+10% FBS) and KMS-21 BM (JCRB No. JCRB1185 cultured in RPMI-1640+10% FBS). • CD48: NCI-H929 (ATCC No. CRL-9068 cultured in RPMI-1640+10% FBS+0.05 mM 2-mercaptoethanol), OPM-2 (DSMZ No. ACC-50 cultured in RPMI-1640+10% FBS) and AMO1 (DSMZ No. ACC-538 cultured in RPMI-1640+20% FBS). • CD79b: RS4;11 (ATCC No. CRL-1873 cultured in RPMI-1640+10% FBS). • CD33: MOLM-13 (DSMZ No. ACC-554 cultured in RPMI-1640+10% FBS) and an isogenic cell line, AMO1-CD33 clone D2. AMO1 cell line was transfected to generate a stable AMO1 cell line expressing the exogenous protein of interest, CD33, AMO1-CD33 clone D2 (cultured in RPMI-1640+20% FBS).
(§3) The ability of Mcl-1 ADCs to inhibit cell proliferation and survival was assessed using a Promega CellTiter-Glo® proliferation assay. Cell lines were cultured in media optimal for their growth at 5% CO2, 37° C. in a tissue culture incubator. Prior to seeding for the proliferation assay, the cells were split at least 2 days before the assay to ensure optimal growth density. On the day of seeding, adherent cells were lifted off tissue culture flasks using 0.25% trypsin. Cell viability and cell density were determined using a cell counter (Vi-Cell XR Cell Viability Analyzer, Beckman Coulter). […] Cells were seeded at a density of 1,000 cells per well in 45 μl of standard growth media. Plates were incubated at 5% CO2, 37° C. overnight in a tissue culture incubator. The next day, free Mcl-1 payload (P1), targeting Mcl-1 ADCs, and non-targeting isotype ADCs were prepared at 10× in standard growth media. The prepared drug treatments were then added to the cells resulting in final concentrations of 0.0005-500 nM and a final volume of 50 μl per well. Each drug concentration was tested in quadruplets. Plates were incubated at 5% CO2, 37° C. for 5 days in a tissue culture incubator, after which cell viability was assessed through the addition of 25 μl of CellTiter Glo® (Promega, Cat. No. G7573), a reagent which lyses cells and measures total adenosine triphosphate (ATP) content. Plates were incubated at room temperature for 10 minutes to stabilize luminescent signals prior to reading using a luminescence reader (EnVision Multilabel Plate Reader, PerkinElmer). To evaluate the effect of the drug treatments, luminescent counts from wells containing untreated cells (100% viability) were used to normalize treated samples. A variable slope model was applied to fit a nonlinear regression curve to the data in GraphPad PRISM version 7.02 software. IC50 and Amax values were extrapolated from the resultant curves.

[7] = test system: RS4;11; test: CellTiter-Glo proliferation assay (Example 6); assay type: cell-based; details: CD79b Mcl-1 ADCs and payload P1, 5 days
Description: as §1, §2, §3

[8] = test system: HCC2218; test: CellTiter-Glo proliferation assay (Example 6); assay type: cell-based; details: HER2 Mcl-1 ADCs and payload P1, 5 days
Description: as §1, §2, §3

[9] = test system: OPM-2; test: CellTiter-Glo proliferation assay (Example 6); assay type: cell-based; details: CD48 Mcl-1 ADCs and payload P1, 5 days
Description: as §1, §2, §3

[10] = test system: HCC1954; test: CellTiter-Glo proliferation assay (Example 6); assay type: cell-based; details: HER2 Mcl-1 ADCs and payload P1, 5 days
Description: as §1, §2, §3

[11] = test system: NCI-H929; test: CellTiter-Glo proliferation assay (Example 6); assay type: cell-based; details: for Amax H929: in %; for IC50: Homo sapiens, NCI-H929, 120 h
Description: as §1, §2, §3

[12] = test system: AMO1; test: CellTiter-Glo proliferation assay (Example 6); assay type: cell-based, human; details: CD48 Mcl-1 ADCs and payload P1, 5 days
Description: as §1, §2
as §3, with “To evaluate the effect of the drug treatments, luminescent counts from wells containing untreated cells (100% viability) were used to normalize treated samples. A variable slope model was applied to fit a nonlinear regression curve to the data in GraphPad PRISM version 7.02 software. IC50 and Amax values were extrapolated from the resultant curves.” left out

[13] = test system: pl21; test: In vitro ADC activity, AML cell lines, CellTiter-Glo (Example 20); assay type: cell-based; details: pl21, 5 days
[14] = test system: sigm5; test: as above; assay type: cell-based; details: sigm5, 5 days
[15] = test system: representative cancer cell lines; test: CellTiter-Glo proliferation assay (Example 6), summary over the cell lines; assay type: cell-based; details: 120 h, 5 days, read-out: IC50 values (range over cell lines)
Description: Mcl-1 ADCs were tested on nine endogenous cancer cell lines and one isogenic cell line engineered to overexpress a target of interest. Six targets were assessed: HER2, BCMA, CD38, CD48, CD79b, and CD33. […]
The ability of Mcl-1 ADCs to inhibit cell proliferation and survival was assessed using a Promega CellTiter-Glo® proliferation assay. […] Cell viability and cell density were determined using a cell counter (Vi-Cell XR Cell Viability Analyzer, Beckman Coulter). […] Plates were incubated at 5% CO2, 37° C. for 5 days in a tissue culture incubator, after which cell viability was assessed through the addition of 25 μl of CellTiter Glo® (Promega, Cat. No. G7573), a reagent which lyses cells and measures total adenosine triphosphate (ATP) content. Plates were incubated at room temperature for 10 minutes to stabilize luminescent signals prior to reading using a luminescence reader (EnVision Multilabel Plate Reader, PerkinElmer). […]

[16] = test system: aml193; test: In vitro ADC activity, AML cell lines, CellTiter-Glo (Example 20); assay type: cell-based; details: aml193, 5 days
[17] = BCMA Mcl-1 ADCs (Table 29) and payload P1, 5 days
[18] = CD48 Mcl-1 ADCs (Table 25) and payload P1, 5 days

COc1ccccc1-c1nccc(COc2ccccc2C[C@@H](Oc2ncnc3sc(-c4ccc(F)cc4)c(-c4ccc(OCCN5CCN(C)CC5)c(Cl)c4C)c23)C(=O)O)n1 [P1, (2R)-2-[5-[3-chloro-2-methyl-4-[2-(4-methylpiperazin-1-yl)ethoxy]phenyl]-6-(4-fluorophenyl)thieno[2,3-d]pyrimidin-4-yl]oxy-3-[2-[[2-(2-methoxyphenyl)pyrimidin-4-yl]methoxy]phenyl]propanoic acid]
GI50 ([1]; Homo sapiens, MV4-11, 120 h): 1 nM
Amax ([1]; in % (unit assumed)): −72
Amax ([2]; in % (unit assumed)): −74
GI50 ([2]; M-07e, 120 h): 94 nM
GI50 ([3]; Homo sapiens, KG-1, 120 h): 861 nM
Amax ([3]; in % (unit assumed)): −69
GI50 ([4]; Homo sapiens, HEL 92.1.7, 120 h): 5280 nM
Amax ([4]; in % (unit assumed)): −1
GI50 ([5]; 120 h): 1 nM
Amax ([5]; in % (unit assumed)): −92
Amax MOLM13 [6]: 128.80
IC50 ([6]; Homo sapiens, MOLM-13, 120 h, read-out: IC50 (nM) MOLM13): 2.44 nM
Amax RS; 411 [7]: 132.40
IC50 ([7]; Homo sapiens, RS4-11, 120 h, read-out: IC50 (nM) RS, 411): 0.299 nM
Amax HCC2218 ([8]; in % (unit assumed)): 100.40
IC50 ([8]; Homo sapiens, HCC2218, 120 h): 14.1 nM
Amax OPM2 [9]: 22.97
IC50 ([9]; Homo sapiens, OPM-2, 120 h, read-out: IC50 (nM) OPM2): 0.136 nM
Amax HCC1954 ([10]; unit assumed): 64.8%
IC50 ([10]; Homo sapiens, HCC1954, 120 h): 63.5 nM
Amax H929 [11, 17]: 89.16
Amax H929 [11, 18]: 25.79
IC50 [11, 17]: 5.61 nM
IC50 [11, 18]: 0.394 nM
Amax AMO1 [12]: 19.97
IC50 ([12]; Homo sapiens, AMO1, 120 h): 0.038 nM
GI50 ([13]; PL-21, 120 h): 350 nM
Amax ([13]; in % (unit assumed)): −55
GI50 ([14]; Homo sapiens, SIG-M5, 120 h): 118 nM
Amax ([14]; in % (unit assumed)): −21
IC50 ([15]; HER2-positive cancer cell lines): 10 to 60 nM
IC50 ([15]; representative cancer cell lines except HER2-positive): 0.038 to 5.6 nM
GI50 ([16]; 120 h): 6 nM
Amax ([16]; in % (unit assumed)): −87
